Tests used:
[1] = test system: high fat diet (HFD) induced non-alcoholic fatty liver mice; test: High fat diet induced non-alcoholic fatty liver mice model (Example 5); format: in vivo, NIH male mice; settings: for Body weight / Weight ratio of liver / ALT / AST / HDL-C / LDL-C / MDA / SOD / TC / TG: i.g. once daily, HFD, mean ± S.E.M; for ALT / AST / HDL-C / LDL-C / MDA / SOD / TC / TG: serum
Excerpt: This example describes an in vivo efficacy study of BUDCA disclosed in the present invention using a high fat diet (HFD) induced non-alcoholic fatty liver mice model.
91 NIH male mice of 4 weeks old were obtained from Vital River Laboratories (Beijing, China). After acclimatization for one week, 13 mice were selected as control group (Group 1, G1) with normal chow diet fed, and the other 78 mice were fed with HFD (in which 40% of calories is from fat) for 4 weeks to establish an animal model resembling the pathophysiology of non-alcoholic fatty liver in human.
Following 4 weeks of high fat dietary intervention, the 78 mice were divided into 6 groups according to body weight (n=13 per group): • Group 2, G2: Vehicle control (0.5% CMC-Na solution) • Group 3, G3: Low-dose group of BUDCA (30 mg/kg) • Group 4, G4: Middle-dose group of BUDCA (100 mg/kg) • Group 5, G5: High-dose group of BUDCA (300 mg/kg) • Group 6, G6: BBR control group (Berberine HCl, 150 mg/Kg) • Group 7, G7: UDCA control group (Ursodeoxycholic acid, 150 mg/Kg)
The mice from G2 to G7 were administered with the corresponding testing articles indicated above once daily by intragastric gavage. HFD continued throughout the duration of the treatment of 6 weeks. The normal mice (G1) were treated with vehicle (0.5% CMC-Na solution) via intragastric gavage. At the end of experiment, the following biochemical parameters were measured and tests were carried out: • Body weight, the weight ratio of liver • Total cholesterol (TC) and triglyceride (TG) levels, high density lipoprotein cholesterol (HDL-C) and low density lipoprotein cholesterol (LDL-C) levels • Alanine aminotransferase (ALT) and aspartate aminotransferase (AST) levels • Superoxide dismutase (SOD) activity and malondialdehyde (MDA) level • Oral glucose tolerance test (OGTT) • Histopathological examination of liver ([…] staining)
After 6 weeks treatment, blood was collected via retro-orbital bleeding of each 12-hour fasted animal. Liver was harvested by surgery for histopathology analysis after weight measurement. Then the serum was isolated for the determination of TC, TG, HDL-C, LDL-C, ALT, AST, SOD and MDA.
One week before sacrifice (Week 5 of treatment), an oral glucose tolerance test (OGTT) was performed in 12-hour fasted animals. For the OGTT, all mice received an oral glucose challenge at 2.0 g/Kg and the blood glucose concentrations were determined by glucometer (ACCU-CHEK Active, Roche) at 0, 30, 60, 90 and 120 min.
The liver tissue was histopathologically evaluated by […] staining after frozen section.

[2] = test system: high fat diet (HFD) induced fatty liver golden hamster; test: High fat diet-induced fatty liver golden hamster model (Example 6); format: in vivo, golden hamsters; settings: for Serum TC level on Day 0 / Serum TG level on Day 0: Day 0 (before treatment); for Serum TC level on Day 0 / Serum TG level on Day 0 / Serum TC level, Week 1 / Serum TG level, Week 1 / Serum TC level, Week 3 / Serum TG level, Week 3 / Serum TC level, Week 5 / Serum TG level, Week 5 / Serum TC level, Week 7 / Serum TG level, Week 7: X ± s, n = 8
Excerpt: This example describes an in vivo efficacy study of BUDCA salt disclosed in the present invention using a high fat diet (HFD) induced fatty liver golden hamster model.
Forty-two SPF golden hamsters with the body weight of 90-100 g were acquired from Vital River Laboratory Animal Technology Co., Ltd. After acclimatization for one week, eight hamsters were selected as normal control group (Group 1), which were fed with normal chow diet. The rest thirty-four hamsters were fed with HFD for two weeks to establish a fatty liver animal model resembling the pathophysiology of NAFLD in human.
For the thirty-four hamsters induced with HFD, twenty-four of them with TC level of 17.96±1.70 mmol/L at the fourteenth day post of HFD were selected and randomized into three groups (n=8 per group): • Group 2: Model control (0.5% tragacanth solution 10 ml/kg); • Group 3: Low-dose (BUDCA 50 mg/kg); • Group 4: High-dose (BUDCA 200 mg/kg)
The hamsters from Group 2 to 4 were treated with corresponding testing articles indicated above once a day by intragastric gavage, and HFD continued throughout the duration of the 7-week administration. The normal hamsters in Group 1 were treated with 0.5% tragacanth solution (10 ml/kg) by intragastric gavage. Serum lipid and blood glucose level, liver function index, food intake and body weight were measured throughout the study. After the 7-week administration, the hamsters were sacrificed and dissected for the general observation and histopathological analysis of liver tissue.

[3] = BUDCA 50 mg/kg i.g. once a day, Week 1
[4] = BUDCA 200 mg/kg i.g. once a day, Week 1
[5] = BUDCA 200 mg/kg i.g. once a day
[6] = both high-dose and low-dose group, P<0.01, FIG. 16
[7] = both medicated groups, P<0.01, FIG. 22

COc1ccc2cc3[n+](cc2c1OC)CCc1cc2c(cc1-3)OCO2.C[C@H](CCC(=O)[O-])[C@H]1CC[C@H]2[C@@H]3[C@@H](O)C[C@@H]4C[C@H](O)CC[C@]4(C)[C@H]3CC[C@]12C [BUDCA, berberine ursodeoxycholate]
Body weight ([1]; BUDCA 30 mg/kg (G3), 6 weeks): 40.3 ± 1.18 g
Weight ratio of liver ([1]; BUDCA 30 mg/kg (G3), 6 weeks): 4.33 ± 0.13%
Body weight ([1]; BUDCA 100 mg/kg (G4), 6 weeks): 41.7 ± 1.59 g
Weight ratio of liver ([1]; BUDCA 100 mg/kg (G4), 6 weeks): 4.15 ± 0.09%
Body weight ([1]; BUDCA 300 mg/kg (G5), 6 weeks): 41.5 ± 1.16 g
Weight ratio of liver ([1]; BUDCA 300 mg/kg (G5), 6 weeks): 4.27 ± 0.10%
Effect on symptoms of non-alcoholic fatty liver (overall efficacy) ([1]; BUDCA 30-300 mg/kg, berberine or ursodeoxycholic acid monotherapy 150 mg/Kg, 6 weeks): dose-dependently ameliorated symptoms of non-alcoholic fatty liver
Gastrointestinal side effects at the time of sacrifice ([1]; BUDCA treated animals, 6 weeks i.g.): no gastrointestinal side effects were observed
ALT ([1]; BUDCA 30 mg/kg (G3), 6 weeks): 30.6 ± 4.37 U/L
AST ([1]; BUDCA 30 mg/kg (G3), 6 weeks): 148.3 ± 7.15 U/L
HDL-C ([1]; BUDCA 30 mg/kg (G3), 6 weeks): 2.33 ± 0.15 mmol/L
LDL-C ([1]; BUDCA 30 mg/kg (G3), 6 weeks): 1.05 ± 0.09 mmol/L
MDA ([1]; BUDCA 30 mg/kg (G3), 6 weeks): 12.34 ± 2.89
SOD ([1]; BUDCA 30 mg/kg (G3), 6 weeks): 61.05 ± 11.59 U/mL
TC ([1]; BUDCA 30 mg/kg (G3), 6 weeks): 5.49 ± 0.25 mmol/L
TG ([1]; BUDCA 30 mg/kg (G3), 6 weeks): 1.18 ± 0.20 mmol/L
ALT ([1]; BUDCA 100 mg/kg (G4), 6 weeks): 29.0 ± 3.95 U/L
AST ([1]; BUDCA 100 mg/kg (G4), 6 weeks): 140.2 ± 16.32 U/L
HDL-C ([1]; BUDCA 100 mg/kg (G4), 6 weeks): 2.26 ± 0.22 mmol/L
LDL-C ([1]; BUDCA 100 mg/kg (G4), 6 weeks): 1.06 ± 0.11 mmol/L
MDA ([1]; BUDCA 100 mg/kg (G4), 6 weeks): 8.02 ± 1.08 µM
SOD ([1]; BUDCA 100 mg/kg (G4), 6 weeks): 91.83 ± 4.90 U/mL
TC ([1]; BUDCA 100 mg/kg (G4), 6 weeks): 5.28 ± 0.50 mmol/L
TG ([1]; BUDCA 100 mg/kg (G4), 6 weeks): 0.92 ± 0.06 mmol/L
ALT ([1]; BUDCA 300 mg/kg (G5), 6 weeks): 27.8 ± 3.08 U/L
AST ([1]; BUDCA 300 mg/kg (G5), 6 weeks): 163.5 ± 11.63 U/L
HDL-C ([1]; BUDCA 300 mg/kg (G5), 6 weeks): 2.48 ± 0.15 mmol/L
LDL-C ([1]; BUDCA 300 mg/kg (G5), 6 weeks): 1.03 ± 0.22 mmol/L
MDA ([1]; BUDCA 300 mg/kg (G5), 6 weeks): 7.78 ± 1.66 µM
SOD ([1]; BUDCA 300 mg/kg (G5), 6 weeks): 97.54 ± 4.88 U/mL
TC ([1]; BUDCA 300 mg/kg (G5), 6 weeks): 5.95 ± 0.54 mmol/L
TG ([1]; BUDCA 300 mg/kg (G5), 6 weeks): 0.85 ± 0.06 mmol/L
Dose dependence of the effects ([2]; 50 vs 200 mg/kg, 7 weeks): relatively dose-dependent
Serum TC level on Day 0 ([2]; BUDCA 50 mg/kg group): 18.14 ± 1.13 mmol/L
Serum TG level on Day 0 ([2]; BUDCA 50 mg/kg group): 5.97 ± 1.19 mmol/L
Serum TC level, Week 1 [2, 3]: 9.33 ± 1.52 mmol/L
Serum TG level, Week 1 [2, 3]: 3.60 ± 0.78 mmol/L
Serum TC level, Week 3 ([2]; BUDCA 50 mg/kg i.g. once a day): 7.58 ± 2.01 mmol/L
Serum TG level, Week 3 ([2]; BUDCA 50 mg/kg i.g. once a day): 2.98 ± 1.31 mmol/L
Serum TC level, Week 5 ([2]; BUDCA 50 mg/kg i.g. once a day): 10.50 ± 2.89 mmol/L
Serum TG level, Week 5 ([2]; BUDCA 50 mg/kg i.g. once a day): 4.51 ± 3.10 mmol/L
Serum TC level, Week 7 ([2]; BUDCA 50 mg/kg i.g. once a day): 9.78 ± 2.58 mmol/L
Serum TG level, Week 7 ([2]; BUDCA 50 mg/kg i.g. once a day): 3.88 ± 1.21 mmol/L
Serum TC level on Day 0 ([2]; BUDCA 200 mg/kg group): 18.18 ± 1.10 mmol/L
Serum TG level on Day 0 ([2]; BUDCA 200 mg/kg group): 6.31 ± 1.75 mmol/L
Serum TC level, Week 1 [2, 4]: 7.51 ± 0.71 mmol/L
Serum TG level, Week 1 [2, 4]: 3.00 ± 0.67 mmol/L
Serum TC level, Week 3 [2, 5]: 6.75 ± 1.00 mmol/L
Serum TG level, Week 3 [2, 5]: 2.68 ± 1.09 mmol/L
Serum TC level, Week 5 [2, 5]: 5.38 ± 1.24 mmol/L
Serum TG level, Week 5 [2, 5]: 3.04 ± 1.68 mmol/L
Serum TC level, Week 7 [2, 5]: 4.95 ± 0.84 mmol/L
Serum TG level, Week 7 [2, 5]: 1.90 ± 0.66 mmol/L
AI value (arterial stiffness index) vs model control group [2, 6]: significantly decreased
Serum LDL-c level vs model control group [2, 6]: significantly decreased
Value of TC/HDL-c vs model control group [2, 6]: significantly decreased
TC level vs model control group ([2]; both low-dose (50 mg/kg) and high-dose (200 mg/kg) group, P<0.01): significantly declined
Food intake vs model control group ([2]; both medicated groups (50 and 200 mg/kg), P>0.05): no significant difference on food intake
Serum AST level vs model control group ([2]; both medicated groups, after 7-week administration, P<0.01, FIG. 17): significantly declined
Serum ALT level vs model control group ([2]; both medicated groups, after 7-week administration, P<0.01, FIG. 18): significantly declined
Color of livers vs model control group ([2]; both medicated groups, FIG. 20): improved
Liver weight vs model control group ([2]; both medicated groups, P<0.01, FIG. 19): significantly decreased
Content of TC and TG in liver vs model control group ([2]; both medicated groups, P<0.01, FIG. 21): significantly decreased
Inflammation score of liver tissue vs model control group [2, 7]: significantly decreased
Positive area for oil red vs model control group [2, 7]: significantly decreased
TG level vs model control group, Week 1 and Week 7 ([2]; high-dose group (200 mg/kg), Week 1 and Week 7, P<0.01): significantly declined
Serum LDL-c level, value of TC/HDL-c and AI value compared with normal control group ([2]; high-dose group (200 mg/kg), after 7-week administration): very similar to those of normal control group
HDL-c level vs model control group ([2]; high-dose group (200 mg/kg), P<0.01): significantly declined
Body weight, first week of treatment ([2]; high-dose group (200 mg/kg), P<0.05): significantly reduced in the first week of treatment
Body weight, rest time of treatment ([2]; high-dose group (200 mg/kg), P>0.05): no significant changes were observed in the rest time of treatment
Color of livers ([2]; high-dose group (200 mg/kg), similar to normal control group): ruddy
Body weight vs model control group ([2]; low-dose and high-dose group, at sacrifice, P>0.05): no significant change observed
TG level vs model control group, Week 1 ([2]; low-dose group (50 mg/kg), Week 1, P<0.01): significantly declined
Body weight throughout the study ([2]; low-dose group (50 mg/kg), P>0.05): No significant changes were observed

Reference: US11976063B2, “Pharmaceutical composition comprising berberine and ursodeoxycholic acid for the treatment of various diseases or disorders” (priority 2014, dated 2024)
